Data published in US20240317709A1, “Lysophosphatidic Acid Receptor Antagonists for Breast Cancer Treatment” (Lakehead University, priority 2023, published 2024).
Like-named read-outs stand apart in the source and are kept apart here.

What was measured:
LPA1 [1] = target: T1, LPA1 (Homo sapiens, UniProt Q92633); test: in vitro cAMP assay using a CHO cell line overexpressing LPA1 receptor; assay type: cell-based; set-up: GFP; host or cells: CHO-K1, transiently transfected; conditions: for % inhibition: cAMP assay, 1 μM LPA, 100 nM forskolin, test concentration not given
Target sequence in this assay (Q92633 whole entry): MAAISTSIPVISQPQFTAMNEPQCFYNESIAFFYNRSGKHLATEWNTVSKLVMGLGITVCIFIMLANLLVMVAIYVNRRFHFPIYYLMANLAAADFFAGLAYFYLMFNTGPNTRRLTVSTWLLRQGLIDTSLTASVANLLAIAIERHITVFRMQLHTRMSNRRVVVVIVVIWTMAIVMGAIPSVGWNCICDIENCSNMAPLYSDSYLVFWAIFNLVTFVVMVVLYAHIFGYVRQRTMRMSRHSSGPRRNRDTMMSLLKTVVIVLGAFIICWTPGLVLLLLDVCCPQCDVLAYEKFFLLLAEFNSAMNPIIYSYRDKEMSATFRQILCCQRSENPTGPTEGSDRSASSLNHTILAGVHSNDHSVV

LPA1 [2] = target: T1, LPA1; conditions: literature value (ref 15); read-out: IC50 in calcium release assay (LPA1); cited from earlier work
Target sequence in this assay (Q92633 whole entry, species assumed): as the sequence (Q92633 whole entry) above

[3] = tested on: histamine release induced by LPA; conditions: in vivo; literature (ref 15); cited from earlier work
lung fibroblast = conditions: in vitro; literature (ref 15); cited from earlier work
LPAs = target: T2, LPAs (Homo sapiens, UniProt Q9UBY5); conditions: literature value (ref 15); read-out: LPAs IC50 in calcium release assay; cited from earlier work
T2 sequence (Q9UBY5 1-353): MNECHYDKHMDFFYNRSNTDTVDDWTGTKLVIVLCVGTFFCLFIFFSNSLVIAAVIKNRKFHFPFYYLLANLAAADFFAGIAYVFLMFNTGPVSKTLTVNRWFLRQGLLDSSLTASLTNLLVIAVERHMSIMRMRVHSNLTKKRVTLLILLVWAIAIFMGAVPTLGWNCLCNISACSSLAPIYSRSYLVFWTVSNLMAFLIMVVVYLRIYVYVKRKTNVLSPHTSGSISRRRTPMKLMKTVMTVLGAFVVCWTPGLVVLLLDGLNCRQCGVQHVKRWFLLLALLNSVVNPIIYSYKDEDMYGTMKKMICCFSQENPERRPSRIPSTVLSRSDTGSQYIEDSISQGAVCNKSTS

MDA-MB-231 cells [4] = test: colony formation assay; assay type: cell-based; conditions: LPA with 1f 0, 0.5, 1.0 or 1.5 mM, FIG. 2
Experimental: In order to study the effect of LPA and the compound 1f on the proliferation, migration, and invasion of MDA-MB-231, several in vitro assays were performed. Colony formation assay is a cell survival assay based on the ability of a single cell to grow into a colony and was performed to evaluate cell proliferation (17).
MDA-MB-231 cells were trypsinized and plated in 6-well plate at a density of 1,000 cells/well and then cultured in 10% FBS DMEM. Cells were allowed to attach overnight and then exposed to LPA or LPA with 1f (0, 0.5, 1.0 or 1.5 mM). Forty-eight hours after chemical treatment, the media was replaced with fresh media, and the plates were incubated at 37° C. Ten days later, the cells were fixed and stained with 4% paraformaldehyde in 0.1% crystal violet. The number of colonies, defined as >50 cells/colony were counted, and the number of colonies were calculated using ImageJ.

MDA-MB-231 cells [5] = test: transwell cell migration assay; assay type: cell-based; conditions: LPA with 1f 0, 0.5, 1.0 or 1.5 mM, 48 h, FIG. 3B
Experimental: (§1) In addition, transwell migration/invasion assays were performed to further confirm the effect of LPA and 1f on cell migration and invasion. Transwell assay is based on a chamber of two media-filled partitions separated by a microporous membrane. Cells were plated in the upper chamber and are allowed to migrate to the lower chamber through the membrane pores with the stimulation of LPA and 1f. For the invasion assay, a layer of basement membrane extract was precoated on the chamber to block the pores of the membrane and prevent non-invasive cells from migrating through the membranes. Invasive cells are able to secret proteases which degrade the membrane extract in order to invade through the membrane.
(§2) Transwell assays were conducted in 24-well transwell plates (pore size: 8 μm) to assess the migratory and invasive capacities of MDA-MB-231 cells. For migration assays, 2×10^4 cells were placed in 200 μl of serum-free DMEM in the upper chamber and then 500 μl of DMEM containing 10% FBS was added to the lower chamber. For the invasion assays, the chamber inserts were precoated with 50 μl of 1:9 mixture of basement membrane extract (R&D Systems) and DMEM overnight in a 37° C. incubator, then 6×10^4 cells were seeded in the upper chamber. 500 μl of DMEM containing 10% FBS was added to the lower chamber. Cells were treated with LPA or LPA with 1f (0, 0.5, 1.0 or 1.5 mM) for 48 h. […]

MDA-MB-231 cells [6] = test: wound healing assay; assay type: cell-based; conditions: LPA with 1f 0, 0.5, 1.0 or 1.5 mM, 48 h, FIG. 3A
Experimental: Wound healing assay is a well-established method to determine cell migration in vitro. Firstly, a scratch was created in the cell monolayer, and then cells migrate to close the scratch. Cell migration rate can be measured using this method.
Cells were seeded in a six-well plate at a density of 3×10^5 cells/well. When the cells formed a tight cell monolayer, a 200-μl plastic pipette tip was used to make a scratch. Cells were washed with PBS to remove cell debris, cultured in serum-free DMEM medium and exposed to LPA or LPA with 1f (0, 0.5, 1.0 or 1.5 mM) for 48 h.
Wound photographs were recorded at the indicated times and analyzed by ImageJ software. All assays were conducted three times in our study.

MDA-MB-231 cells [7] = test: transwell cell invasion assay; assay type: cell-based; conditions: basement membrane extract coated, LPA with 1f 0, 0.5, 1.0 or 1.5 mM, 48 h, FIG. 3B
Experimental: as §1, §2

[8] = concentration to reverse 50% of the inhibitory effect of 1 μM 18:1 LPA on forskolin-mediated cAMP production, CHO-K1 overexpressing LPA1

Row | Compound | % inhibition (LPA1 [1]) [%] | IC50 (LPA1 [1]; [8]) [nM] | further results
1 | Cc1nnn(-c2ccc(-c3ccc(C4(C(=O)O)CC4)cc3)cc2)c1NC(=O)N[C@H](C)c1ccc(F)cc1 [Compound 2e, (R)-1-(4′-(5-(3-(1-(4-fluorophenyl)ethyl)ureido)-4-methyl-1H-1,2,3-triazol-1-yl)-[1,1′-biphenyl]-4-yl)cyclopropane-1-carboxylic acid] | 102.0 | 780 | –
2 | Cc1nnn(-c2ccc(-c3ccc(C4(C(=O)O)CC4)cc3)cc2)c1NC(=O)NC(C)c1ccccc1 (stereo not shown) [Compound 2h, 1-(4′-(4-methyl-5-(3-(1-phenylethyl)ureido)-1H-1,2,3-triazol-1-yl)-[1,1′-biphenyl]-4-yl)cyclopropane-1-carboxylic acid] | 83.8 | 240 | –
3 | Cc1nnn(-c2ccc(-c3ccc(C4(C(=O)O)CC4)cc3)cc2)c1NC(=O)O[C@H](C)c1ccccc1 [RO-2] | 111.6 | 18.3 | IC50 (LPA1 [2]): 25 nM; histamine release induced by LPA [3]: ameliorated histamine release induced by LPA in vivo; inhibition of lung fibroblast contraction induced by LPA (lung fibroblast): inhibited lung fibroblast proliferation and contraction induced by LPA in vitro; inhibition of lung fibroblast proliferation induced by LPA (lung fibroblast): inhibited lung fibroblast proliferation and contraction induced by LPA in vitro; IC50 (LPAs): > 30000 nM
4 | Cc1nnn(-c2ccc(-c3ccc(C4(C(=O)O)CC4)cc3)cc2)c1NC(=O)OCc1ccc(F)cc1 [Compound 1b, 1-(4′-(5-((((4-fluorobenzyl)oxy)carbonyl)amino)-4-methyl-1H-1,2,3-triazol-1-yl)-[1,1′-biphenyl]-4-yl)cyclopropane-1-carboxylic acid] | 58.43 | 3340 | –
5 | Cc1nnn(-c2ccc(-c3ccc(C4(C(=O)O)CC4)cc3)cc2)c1NC(=O)NCc1cccc(F)c1 [Compound 2c, 1-(4′-(5-(3-(3-fluorobenzyl)ureido)-4-methyl-1H-1,2,3-triazol-1-yl)-[1,1′-biphenyl]-4-yl)cyclopropane-1-carboxylic acid] | 88.1 | 2000 | –
6 | Cc1nnn(-c2ccc(-c3ccc(C4(C(=O)O)CC4)cc3)cc2)c1NC(=O)NCc1ccccc1F [Compound 2d, 1-(4′-(5-(3-(2-fluorobenzyl)ureido)-4-methyl-1H-1,2,3-triazol-1-yl)-[1,1′-biphenyl]-4-yl)cyclopropane-1-carboxylic acid] | 49.5 | 4470 | –
7 | Cc1nnn(-c2ccc(-c3ccc(C4(C(=O)O)CC4)cc3)cc2)c1NC(=O)N[C@@H](C)c1ccccc1 [Compound 2g, (S)-1-(4′-(4-methyl-5-(3-(1-phenylethyl)ureido)-1H-1,2,3-triazol-1-yl)-[1,1′-biphenyl]-4-yl)cyclopropane-1-carboxylic acid] | 92.7 | 299 | –
8 | Cc1nnn(-c2ccc(-c3ccc(C4(C(=O)O)CC4)cc3)cc2)c1NC(=O)OCc1cccc(F)c1 [Compound 1c, 1-(4′-(5-((((3-fluorobenzyl)oxy)carbonyl)amino)-4-methyl-1H-1,2,3-triazol-1-yl)-[1,1′-biphenyl]-4-yl)cyclopropane-1-carboxylic acid] | 77.1 | 2150 | –
9 | Cc1nnn(-c2ccc(-c3ccc(C4(C(=O)O)CC4)cc3)cc2)c1NC(=O)OC(C)c1ccc(F)cc1 (stereo not shown) [Compound 1e, 1-(4′-(5-(((1-(4-fluorophenyl)ethoxy)carbonyl)amino)-4-methyl-1H-1,2,3-triazol-1-yl)-[1,1-biphenyl]-4-yl)cyclopropane-1-carboxylic acid] | 102.1 | 93.3 | –
10 | Cc1nnn(-c2ccc(-c3ccc(C4(C(=O)O)CC4)cc3)cc2)c1NC(=O)NCc1ccccn1 [Compound 2a, 1-(4′-(4-methyl-5-(3-(pyridin-2-ylmethyl)ureido)-1H-1,2,3-triazol-1-yl)-[1,1′-biphenyl]-4-yl)cyclopropane-1-carboxylic acid] | 41.8 | 1000 | –
11 | Cc1nnn(-c2ccc(-c3ccc(C4(C(=O)O)CC4)cc3)cc2)c1NC(=O)OC(C)c1cccc(F)c1 (stereo not shown) [Compound 1f, 1-(4′-(5-(((1-(3-fluorophenyl)ethoxy)carbonyl)amino)-4-methyl-1H-1,2,3-triazol-1-yl)-[1,1′-biphenyl]-4-yl)cyclopropane-1-carboxylic acid] | 109.8 | 16 | inhibition of LPA-induced cell proliferation (colony formation) (MDA-MB-231 cells [4]): inhibited LPA-induced MDA-MB-231 cell proliferation in a dose-dependent manner; IC50 (nM) (LPA1 [1]; [8]): lower than the control compound; inhibition of LPA-induced cell migration (transwell) (MDA-MB-231 cells [5]): hindered by 1f dose-dependently; inhibition of LPA-induced cell migration (wound healing) (MDA-MB-231 cells [6]): impeded cell migration dose-dependently; inhibition of LPA-induced cell invasion (transwell) (MDA-MB-231 cells [7]): hindered by 1f dose-dependently
12 | Cc1nnn(-c2ccc(-c3ccc(C4(C(=O)O)CC4)cc3)cc2)c1NC(=O)OCc1ccccc1F [Compound 1d, 1-(4′-(5-((((2-fluorobenzyl)oxy)carbonyl)amino)-4-methyl-1H-1,2,3-triazol-1-yl)-[1,1′-biphenyl]-4-yl)cyclopropane-1-carboxylic acid] | 81.9 | 1490 | –
13 | CCc1cccc(COC(=O)Nc2c(C)nnn2-c2ccc(-c3ccc(C4(C(=O)O)CC4)cc3)cc2)c1 [Compound 1h, 1-(4′-(5-((((3-ethylbenzyl)oxy)carbonyl)amino)-4-methyl-1H-1,2,3-triazol-1-yl)-[1,1′-biphenyl]-4-yl)cyclopropane-1-carboxylic acid] | 115.7 | 91.2 | –
14 | Cc1nnn(-c2ccc(-c3ccc(C4(C(=O)O)CC4)cc3)cc2)c1NC(=O)N[C@H](C)c1ccccc1 [Compound 2f, (R)-1-(4′-(4-methyl-5-(3-(1-phenylethyl)ureido)-1H-1,2,3-triazol-1-yl)-[1,1′-biphenyl]-4-yl)cyclopropane-1-carboxylic acid] | 108.1 | 242 | –
15 | Cc1nnn(-c2ccc(-c3ccc(C4(C(=O)O)CC4)cc3)cc2)c1NC(=O)NCc1ccc(F)cc1 [Compound 2b, 1-(4′-(5-(3-(4-fluorobenzyl)ureido)-4-methyl-1H-1,2,3-triazol-1-yl)-[1,1′-biphenyl]-4-yl)cyclopropane-1-carboxylic acid] | 40.5 | 3150 | –
